Measured values: patent publication US20070197599A1, “HYDROXYLAMINES AND DERIVATIVES AS ANTI-ANGIOGENIC AGENTS” (priority 2006, published 2007)
Read-outs that look alike come from different tables or passages of the source.

Key:
[1] = In vitro stability of Compound 1 in rat plasma; format: in vitro ADME; details: for Concentration of Compound 1 in plasma: 1000 ng/mL added; for half-life at 1000 ng/mL: rat, pooled rat plasma
Experimental: (§1) The active metabolite of Compound 1 (Cyclopropanecarboxylic acid 1-hydroxy-2,2,6,6-tetramethyl-piperidin-4-yl ester) is TPH. The objective of this analysis was to determine the in vitro half-life of Compound 1 in rat, rabbit, dog, and human plasma under standardized incubation conditions.
(§2) Compound 1 was incubated with pooled rat, rabbit, dog, and human plasma for various times under standardized incubation conditions. Pre-labeled tubes containing pooled plasma from rats, rabbits, dogs, and humans were pre-incubated in a shaking 37° C. water bath. A Compound 1 solution was added to the tubes at a final concentration of 1000 ng/mL. Time zero samples (n=5) were immediately removed and transferred into tubes containing a stabilizer solution (DTPA, acetylcysteine and ascorbic acid), the LC/MS/MS assay internal standard and methanol. […] The tubes were vortexed, placed on ice, followed by centrifugation. One hundred-μL aliquots of the supernatant were transferred into HPLC sample vials. Additional tubes (n=5 at each time point) were incubated for 5, 10, 20, 30, 60, 120, and 240 minutes at 37° C. and thereafter processed. The amount of Compound 1 and TPH in each incubated sample was quantified using validated LC/MS/MS assays.

[2] = In vitro stability of Compound 1 in rabbit plasma; format: in vitro ADME; details: for Concentration of Compound 1 in plasma: 1000 ng/mL added; for half-life at 1000 ng/mL: rabbit, pooled rabbit plasma
Experimental: as §1, §2

[3] = In vitro stability of Compound 1 in dog plasma; format: in vitro ADME; details: for Concentration of Compound 1 in plasma: 1000 ng/mL added; for half-life at 1000 ng/mL: dog, pooled dog plasma
Experimental: as §1, §2

[4] = In vitro stability of Compound 1 in human plasma; format: in vitro ADME; details: for Concentration of Compound 1 in plasma: 1000 ng/mL added; for half-life at 1000 ng/mL: human, pooled human plasma
Experimental: as §1, §2

[5] = Single-dose 10-minute intravenous infusion toxicokinetics in Sprague-Dawley rats; format: in vivo; details: for Cmax: in vivo, read-out: Cmax of Compound 1; for Cmax / Tmax: 10-minute iv infusion; for concentration at 0.167 hr: 0.167 hr from start of infusion; for Tmax: read-out: Tmax of Compound 1
Experimental: Blood for toxicokinetic evaluations was collected at pre-determined time points during and after the infusion.
All pharmacokinetic analyses were performed using Kinetica®, version 4.2 (Innaphase, Philadelphia, Pa.).
Cmax is the observed maximum plasma concentration
Tmax is the time Cmax is reached
T1/2 is the elimination half-life
The plasma concentrations were rounded to the nearest tenth of a ng/mL before the calculations. […] Nominal time points were used for all calculations.

[6] = average, read-out: in vitro half-life

## CC1(C)CC(OC(=O)C2CC2)CC(C)(C)N1O.Cl [Compound 1, 1-hydroxy-4-cyclopropanecarbonyloxy-2,2,6,6-tetramethylpiperidine hydrochloride]
[1]; 37° C., incubation 0 min
  Concentration of Compound 1 in plasma: 806.50 ± 86.77 ng/mL
[1]; 37° C., incubation 5 min
  Concentration of Compound 1 in plasma: 770.32 ± 20.66 ng/mL
[1]; 37° C., incubation 10 min
  Concentration of Compound 1 in plasma: 745.77 ± 15.50 ng/mL
[1]; 37° C., incubation 20 min
  Concentration of Compound 1 in plasma: 682.88 ± 16.94 ng/mL
[1]; 37° C., incubation 30 min
  Concentration of Compound 1 in plasma: 613.79 ± 25.84 ng/mL
[1]; 37° C., incubation 60 min
  Concentration of Compound 1 in plasma: 480.48 ± 10.69 ng/mL
[1]; 37° C., incubation 120 min
  Concentration of Compound 1 in plasma: 277.94 ± 5.55 ng/mL
[1]; 37° C., incubation 240 min
  Concentration of Compound 1 in plasma: 80.70 ± 2.02 ng/mL
[1]; [6]
  half-life at 1000 ng/mL: 70 min
[1]; in vitro, 37° C., read-out: T½
  half-life at 1000 ng/mL: 69.5 min
[2]; 37° C., incubation 0 min
  Concentration of Compound 1 in plasma: 502.75 ± 74.66 ng/mL
[2]; 37° C., incubation 5 min
  Concentration of Compound 1 in plasma: 14.56 ± 3.35 ng/mL
[2]; 37° C., incubation 10 min
  Concentration of Compound 1 in plasma: 0.00 ± 0.00 ng/mL
[2]; 37° C., incubation 20 min
  Concentration of Compound 1 in plasma: 0.00 ± 0.00 ng/mL
[2]; 37° C., incubation 30 min
  Concentration of Compound 1 in plasma: 0.00 ± 0.00 ng/mL
[2]; 37° C., incubation 60 min
  Concentration of Compound 1 in plasma: 0.00 ± 0.00 ng/mL
[2]; 37° C., incubation 120 min
  Concentration of Compound 1 in plasma: 0.00 ± 0.00 ng/mL
[2]; 37° C., incubation 240 min
  Concentration of Compound 1 in plasma: 0.00 ± 0.00 ng/mL
[2]; [6]
  half-life at 1000 ng/mL: 1 min
[2]; in vitro, 37° C., read-out: T½
  half-life at 1000 ng/mL: 0.98 min
[3]; 37° C., incubation 0 min
  Concentration of Compound 1 in plasma: 771.12 ± 21.68 ng/mL
[3]; 37° C., incubation 5 min
  Concentration of Compound 1 in plasma: 804.93 ± 17.45 ng/mL
[3]; 37° C., incubation 10 min
  Concentration of Compound 1 in plasma: 811.14 ± 21.06 ng/mL
[3]; 37° C., incubation 20 min
  Concentration of Compound 1 in plasma: 809.01 ± 18.58 ng/mL
[3]; 37° C., incubation 30 min
  Concentration of Compound 1 in plasma: 789.53 ± 13.73 ng/mL
[3]; 37° C., incubation 60 min
  Concentration of Compound 1 in plasma: 717.22 ± 25.73 ng/mL
[3]; 37° C., incubation 120 min
  Concentration of Compound 1 in plasma: 608.14 ± 25.96 ng/mL
[3]; 37° C., incubation 240 min
  Concentration of Compound 1 in plasma: 428.20 ± 12.03 ng/mL
[3]; average, read-out: in vitro half-life (converted)
  half-life at 1000 ng/mL: 240 min
[3]; in vitro, 37° C., read-out: T½
  half-life at 1000 ng/mL: 240 min
[4]; 37° C., incubation 0 min
  Concentration of Compound 1 in plasma: 775.47 ± 22.50 ng/mL
[4]; 37° C., incubation 5 min
  Concentration of Compound 1 in plasma: 593.43 ± 7.55 ng/mL
[4]; 37° C., incubation 10 min
  Concentration of Compound 1 in plasma: 503.18 ± 20.90 ng/mL
[4]; 37° C., incubation 20 min
  Concentration of Compound 1 in plasma: 394.69 ± 6.72 ng/mL
[4]; 37° C., incubation 30 min
  Concentration of Compound 1 in plasma: 316.37 ± 7.67 ng/mL
[4]; 37° C., incubation 60 min
  Concentration of Compound 1 in plasma: 162.41 ± 9.77 ng/mL
[4]; 37° C., incubation 120 min
  Concentration of Compound 1 in plasma: 32.22 ± 2.63 ng/mL
[4]; 37° C., incubation 240 min
  Concentration of Compound 1 in plasma: 0.00 ± 0.00 ng/mL
[4]; [6]
  half-life at 1000 ng/mL: 28 min
[4]; in vitro, 37° C., read-out: T½
  half-life at 1000 ng/mL: 27.8 min
[5]; 10 mg/kg
  plasma level of Compound 1 at one hour after termination of the infusion: not quantifiable
[5]; both sexes, Sprague-Dawley, rat, 10 mg/kg
  Cmax: 980 ng/mL
[5]; both sexes, Sprague-Dawley, rat, 30 mg/kg
  Cmax: 3490 ng/mL
[5]; both sexes, Sprague-Dawley, rat, 100 mg/kg
  Cmax: 29000 ng/mL
[5]; both sexes, Sprague-Dawley, rat, 200 mg/kg
  Cmax: 89700 ng/mL
[5]; both sexes, Sprague-Dawley, rat, plasma, 10 mg/kg iv infusion, read-out: Plasma concentration of Compound 1
  concentration at 0.167 hr: 980 ± 311 ng/mL
[5]; both sexes, Sprague-Dawley, rat, plasma, 10 mg/kg iv infusion, 1.167 hr, below 50 ng/mL assigned zero, read-out: Plasma concentration of Compound 1
  concentration at 1.167 hr: 0 ng/mL
[5]; both sexes, Sprague-Dawley, rat, plasma, 10 mg/kg iv infusion, 2.167 hr, below 50 ng/mL assigned zero, read-out: Plasma concentration of Compound 1
  concentration at 2.167 hr: 0 ng/mL
[5]; both sexes, Sprague-Dawley, rat, plasma, 10 mg/kg iv infusion, below 50 ng/mL assigned zero, read-out: Plasma concentration of Compound 1
  concentration at 4.167 hr: 0 ng/mL
[5]; both sexes, Sprague-Dawley, rat, plasma, 10 mg/kg
  Tmax: 10 min
[5]; both sexes, Sprague-Dawley, rat, plasma, 30 mg/kg iv infusion, read-out: Plasma concentration of Compound 1
  concentration at 0.167 hr: 3490 ± 809 ng/mL
[5]; both sexes, Sprague-Dawley, rat, plasma, 30 mg/kg iv infusion, below 50 ng/mL assigned zero, read-out: Plasma concentration of Compound 1
  concentration at 4.167 hr: 0 ng/mL
[5]; both sexes, Sprague-Dawley, rat, plasma, 30 mg/kg
  Tmax: 10 min
[5]; both sexes, Sprague-Dawley, rat, plasma, 100 mg/kg iv infusion, read-out: Plasma concentration of Compound 1
  concentration at 0.167 hr: 29000 ± 15100 ng/mL
[5]; both sexes, Sprague-Dawley, rat, plasma, 100 mg/kg iv infusion, below 50 ng/mL assigned zero, read-out: Plasma concentration of Compound 1
  concentration at 4.167 hr: 0 ng/mL
[5]; both sexes, Sprague-Dawley, rat, plasma, 100 mg/kg
  Tmax: 10 min
[5]; both sexes, Sprague-Dawley, rat, plasma, 200 mg/kg iv infusion, read-out: Plasma concentration of Compound 1
  concentration at 0.167 hr: 89700 ± 18100 ng/mL
[5]; both sexes, Sprague-Dawley, rat, plasma, 200 mg/kg iv infusion, below 50 ng/mL assigned zero, read-out: Plasma concentration of Compound 1
  concentration at 4.167 hr: 0 ng/mL
[5]; both sexes, Sprague-Dawley, rat, plasma, 200 mg/kg
  Tmax: 10 min
[5]; suggested by the results, half-life not determinable
  clearance of Compound 1 in rats: very rapid
[5]; three higher dosages of 30 to 200 mg/kg
  plasma levels of Compound 1 at four hours after termination of the infusion: not quantifiable
